In paper PMC5218480 (PLoS ONE, 2017):

Test system: MV-4-11 cells
Experiment: Gene expression microarray analysis (Affymetrix PrimeView) and GSEA
Assay type: cell-based, human
Parameters: RFU PODN (11730768_x_at) / Fold change /veh PODN (11730768_x_at) / RFU LINC00158 (11744669_a_at) / Fold change /veh LINC00158 (11744669_a_at) / RFU DUSP10 (11751237_a_at) / Fold change /veh DUSP10 (11751237_a_at) / RFU ID3 (11757404_x_at) / Fold change /veh ID3 (11757404_x_at) / RFU PLEKHG5 (11737974_s_at) / Fold change /veh PLEKHG5 (11737974_s_at) / RFU LRRC4B (11730491_at) / Fold change /veh LRRC4B (11730491_at) / RFU GIMAP4 (11747438_a_at) / Fold change /veh GIMAP4 (11747438_a_at) / RFU KRT8 (11758183_x_at) / Fold change /veh KRT8 (11758183_x_at) / RFU CNN1 (11734310_a_at) / Fold change /veh CNN1 (11734310_a_at) / RFU VPS37D (11726825_at) / Fold change /veh VPS37D (11726825_at) / RFU C10orf10 (11716522_x_at) / Fold change /veh C10orf10 (11716522_x_at) / RFU KIR2DL2 /// KIR2DL4 /// KIR2DL5A /// KIR2DL5B /// KIR2DS1 /// KIR2DS2 /// KIR2DS3 /// KIR2DS4 /// KIR3DL3 /// KIR3DL3 /// KIR3DS1 (11738374_at) / Fold change /veh KIR2DL2 /// KIR2DL4 /// KIR2DL5A /// KIR2DL5B /// KIR2DS1 /// KIR2DS2 /// KIR2DS3 /// KIR2DS4 /// KIR3DL3 /// KIR3DL3 /// KIR3DS1 (11738374_at) / RFU C1QL1 (11718748_at) / Fold change /veh C1QL1 (11718748_at) / RFU TMPRSS4 (11747572_a_at) / Fold change /veh TMPRSS4 (11747572_a_at) / RFU HAMP (11756126_x_at) / Fold change /veh HAMP (11756126_x_at) / RFU RNFT2 (11725882_a_at) / Fold change /veh RNFT2 (11725882_a_at) / RFU NR4A2 (11747474_a_at) / Fold change /veh NR4A2 (11747474_a_at) / RFU ABCC12 (11746883_a_at) / Fold change /veh ABCC12 (11746883_a_at) / RFU TMEM136 (11760407_x_at) / Fold change /veh TMEM136 (11760407_x_at) / RFU CLDN22 /// WWC2 (11732394_at) / Fold change /veh CLDN22 /// WWC2 (11732394_at) / RFU HLA-DPB1 (11760878_x_at) / Fold change /veh HLA-DPB1 (11760878_x_at) / RFU SPINT1 (11716480_a_at) / Fold change /veh SPINT1 (11716480_a_at) / RFU GAP43 (11754022_s_at) / Fold change /veh GAP43 (11754022_s_at) / RFU A4GNT (11735810_at) / Fold change /veh A4GNT (11735810_at) / RFU PRB3 (11715151_x_at) / Fold change /veh PRB3 (11715151_x_at) / RFU TUBB4B (11761932_at) / Fold change /veh TUBB4B (11761932_at) / RFU CAPN14 (11732068_a_at) / Fold change /veh CAPN14 (11732068_a_at) / RFU TMCC2 (11721928_a_at) / Fold change /veh TMCC2 (11721928_a_at) / RFU IRGQ (11745062_a_at) / Fold change /veh IRGQ (11745062_a_at) / RFU FAM174B (11720279_a_at) / Fold change /veh FAM174B (11720279_a_at) / RFU TMPRSS4 (11748680_a_at) / Fold change /veh TMPRSS4 (11748680_a_at) / RFU FAM212B (11763350_a_at) / Fold change /veh FAM212B (11763350_a_at) / RFU PLEKHG5 (11743358_a_at) / Fold change /veh PLEKHG5 (11743358_a_at) / RFU ZSCAN30 (11745921_a_at) / Fold change /veh ZSCAN30 (11745921_a_at) / RFU CMKLR1 (11741424_a_at) / Fold change /veh CMKLR1 (11741424_a_at) / RFU LOC101060620 /// MAPK8IP1 (11723275_at) / Fold change /veh LOC101060620 /// MAPK8IP1 (11723275_at) / RFU SPTSSB (11747773_x_at) / Fold change /veh SPTSSB (11747773_x_at) / RFU PRSS12 (11739890_at) / Fold change /veh PRSS12 (11739890_at) / RFU BIN1 (11741810_x_at) / Fold change /veh BIN1 (11741810_x_at) / RFU WNT11 (11732464_a_at) / Fold change /veh WNT11 (11732464_a_at) / RFU C10orf10 (11716521_a_at) / Fold change /veh C10orf10 (11716521_a_at) / RFU C5orf56 (11738089_at) / Fold change /veh C5orf56 (11738089_at) / RFU CYB561 (11721691_x_at) / Fold change /veh CYB561 (11721691_x_at) / RFU ANKRD19P (11752326_a_at) / Fold change /veh ANKRD19P (11752326_a_at) / RFU OR2T12 /// OR2T33 /// OR2T8 (11738714_s_at) / Fold change /veh OR2T12 /// OR2T33 /// OR2T8 (11738714_s_at) / RFU VCAN (11748164_a_at) / Fold change /veh VCAN (11748164_a_at) / RFU JSRP1 (11732532_at) / Fold change /veh JSRP1 (11732532_at) / RFU KRTAP10-11 (11738290_x_at) / Fold change /veh KRTAP10-11 (11738290_x_at) / RFU MYO3A (11730013_a_at) / Fold change /veh MYO3A (11730013_a_at) / RFU EBF3 (11725865_a_at) / Fold change /veh EBF3 (11725865_a_at) / RFU CAMK2N1 (11719241_x_at) / Fold change /veh CAMK2N1 (11719241_x_at) / RFU C5orf56 (11738088_a_at) / Fold change /veh C5orf56 (11738088_a_at) / RFU OLFML3 (11715873_a_at) / Fold change /veh OLFML3 (11715873_a_at) / RFU LOC100653217 /// NTM (11731650_a_at) / Fold change /veh LOC100653217 /// NTM (11731650_a_at) / RFU MAPK11 (11762145_a_at) / Fold change /veh MAPK11 (11762145_a_at) / RFU FIZ1 (11724087_x_at) / Fold change /veh FIZ1 (11724087_x_at) / RFU OASL (11726364_x_at) / Fold change /veh OASL (11726364_x_at) / RFU SOX15 (11748057_x_at) / Fold change /veh SOX15 (11748057_x_at) / RFU CD79A (11719716_a_at) / Fold change /veh CD79A (11719716_a_at) / RFU HIST1H1D (11736915_at) / Fold change /veh HIST1H1D (11736915_at) / RFU CASKIN2 (11723855_a_at) / Fold change /veh CASKIN2 (11723855_a_at) / RFU LOC730098 (11760151_x_at) / Fold change /veh LOC730098 (11760151_x_at) / RFU OR4N2 (11742367_at) / Fold change /veh OR4N2 (11742367_at) / RFU PRRT2 (11749266_a_at) / Fold change /veh PRRT2 (11749266_a_at) / RFU SNX32 (11753110_a_at) / Fold change /veh SNX32 (11753110_a_at) / RFU CDHR5 (11726645_a_at) / Fold change /veh CDHR5 (11726645_a_at) / RFU RCAN1 (11760418_a_at) / Fold change /veh RCAN1 (11760418_a_at) / RFU FAM167A (11723789_a_at) / Fold change /veh FAM167A (11723789_a_at) / RFU FAM26E (11764081_at) / Fold change /veh FAM26E (11764081_at) / RFU ISYNA1 (11749810_s_at) / Fold change /veh ISYNA1 (11749810_s_at) / RFU ACY1 (11761880_at) / Fold change /veh ACY1 (11761880_at) / RFU 11764098_at / Fold change /veh 11764098_at / RFU SAMD14 (11745864_x_at) / Fold change /veh SAMD14 (11745864_x_at) / RFU NPB (11741838_a_at) / Fold change /veh NPB (11741838_a_at) / RFU TMPRSS6 (11731388_a_at) / Fold change /veh TMPRSS6 (11731388_a_at) / RFU KRTAP10-2 (11738614_at) / Fold change /veh KRTAP10-2 (11738614_at) / RFU ARHGAP8 /// PRR5-ARHGAP8 (11727945_x_at) / Fold change /veh ARHGAP8 /// PRR5-ARHGAP8 (11727945_x_at) / RFU KRTAP5-7 /// NADSYN1 (11734609_at) / Fold change /veh KRTAP5-7 /// NADSYN1 (11734609_at) / RFU RASL12 (11751679_a_at) / Fold change /veh RASL12 (11751679_a_at) / RFU CDKN2B (11736163_a_at) / Fold change /veh CDKN2B (11736163_a_at) / RFU PRF1 (11729649_at) / Fold change /veh PRF1 (11729649_at) / RFU, ZNF638 /// ZNF638-IT1 / Fold change vs veh, ZNF638 /// ZNF638-IT1 / RFU, PANK3 / Fold change vs veh, PANK3 / RFU, SH3YL1 / Fold change vs veh, SH3YL1 / RFU, ZEB2 / Fold change vs veh, ZEB2 / RFU, NRIP1 / Fold change vs veh, NRIP1 / RFU, PTTG1IP / Fold change vs veh, PTTG1IP / RFU, CAPN2 / Fold change vs veh, CAPN2 / RFU, MED14 / Fold change vs veh, MED14 / RFU, SNORA58 / Fold change vs veh, SNORA58 / RFU, C1orf63 / Fold change vs veh, C1orf63 / RFU, LRRFIP1 / Fold change vs veh, LRRFIP1 / RFU, NDUFAF7 / Fold change vs veh, NDUFAF7 / RFU, SLC12A2 / Fold change vs veh, SLC12A2 / RFU, IBTK / Fold change vs veh, IBTK / RFU, ESF1 / Fold change vs veh, ESF1 / Fold change vs veh, TMEM50B / RFU, TAOK1 / Fold change vs veh, TAOK1 / RFU, ACBD3 / Fold change vs veh, ACBD3 / RFU, TMA16 / Fold change vs veh, TMA16 / RFU, RWDD3 / Fold change vs veh, RWDD3 / RFU, BCAT1 / Fold change vs veh, BCAT1 / RFU, EDEM3 / Fold change vs veh, EDEM3 / RFU, TMEM33 / Fold change vs veh, TMEM33 / RFU, WDR75 / Fold change vs veh, WDR75 / RFU, AHCTF1 / Fold change vs veh, AHCTF1 / RFU, TFRC / Fold change vs veh, TFRC / RFU, ZDHHC17 / Fold change vs veh, ZDHHC17 / RFU, NOM1 / Fold change vs veh, NOM1 / RFU, ARL8B / Fold change vs veh, ARL8B / RFU, ZBTB11 / Fold change vs veh, ZBTB11 / RFU, TAMM41 / Fold change vs veh, TAMM41 / RFU, KIAA1704 /// LOC100996395 / Fold change vs veh, KIAA1704 /// LOC100996395 / RFU, ING1 / Fold change vs veh, ING1 / RFU, TRMT61B / Fold change vs veh, TRMT61B / RFU, FUBP3 / Fold change vs veh, FUBP3 / RFU, TP53 / Fold change vs veh, TP53 / RFU, TNKS2 / Fold change vs veh, TNKS2 / RFU, ZFP14 / Fold change vs veh, ZFP14 / RFU, ACTR2 / Fold change vs veh, ACTR2 / RFU, PPP3R1 / Fold change vs veh, PPP3R1 / RFU, PIK3R1 / Fold change vs veh, PIK3R1 / RFU, HNRNPA1 / Fold change vs veh, HNRNPA1 / RFU, RNF170 / Fold change vs veh, RNF170 / RFU, ZNF28 / Fold change vs veh, ZNF28 / RFU, RNGTT / Fold change vs veh, RNGTT / RFU, OGT / Fold change vs veh, OGT / RFU, BRD1 / Fold change vs veh, BRD1 / RFU, MARS / Fold change vs veh, MARS / RFU, ZNF655 / Fold change vs veh, ZNF655 / RFU, FAHD1 / Fold change vs veh, FAHD1 / RFU, BDP1 / Fold change vs veh, BDP1 / RFU, LRRCC1 / Fold change vs veh, LRRCC1 / RFU, ARID1A / Fold change vs veh, ARID1A / RFU, ZNF146 / Fold change vs veh, ZNF146 / RFU, ZNF330 / Fold change vs veh, ZNF330 / RFU, GPN3 / Fold change vs veh, GPN3 / RFU, C9orf123 / Fold change vs veh, C9orf123 / RFU, N4BP2L2 / Fold change vs veh, N4BP2L2 / RFU, ARFIP1 / Fold change vs veh, ARFIP1 / RFU, FAM179B / Fold change vs veh, FAM179B / RFU, BCL10 / Fold change vs veh, BCL10 / RFU, UHRF1BP1L / Fold change vs veh, UHRF1BP1L / RFU, BET1 / Fold change vs veh, BET1 / RFU, CNOT2 / Fold change vs veh, CNOT2 / RFU, ZNF268 / Fold change vs veh, ZNF268 / Fold change vs veh, ZNF507 / RFU, DGCR2 / Fold change vs veh, DGCR2 / RFU, WDSUB1 / Fold change vs veh, WDSUB1 / Fold change vs veh, HSP90B1 /// MIR3652 / RFU, ADSS / Fold change vs veh, ADSS / RFU, GK / Fold change vs veh, GK / RFU, ZNF148 / Fold change vs veh, ZNF148 / RFU, TAF9 / Fold change vs veh, TAF9 / RFU, SLC1A5 / Fold change vs veh, SLC1A5 / RFU, SLMO2 / Fold change vs veh, SLMO2 / RFU, ABCC4 / Fold change vs veh, ABCC4 / RFU, LOC101060439 /// RAP1B / Fold change vs veh, LOC101060439 /// RAP1B / RFU, RFX7 / Fold change vs veh, RFX7 / RFU, GTPBP10 / Fold change vs veh, GTPBP10 / RFU, CNEP1R1 / Fold change vs veh, CNEP1R1 / RFU, BIVM-ERCC5 /// ERCC5 / Fold change vs veh, BIVM-ERCC5 /// ERCC5 / RFU, ILF3 / Fold change vs veh, ILF3 / RFU 11762660_at / Fold change /veh 11762660_at / RFU VCAN (11757783_s_at) / Fold change /veh VCAN (11757783_s_at) / RFU DDX43 (11728927_at) / Fold change /veh DDX43 (11728927_at) / RFU KRT8 (11758188_x_at) / Fold change /veh KRT8 (11758188_x_at) / RFU NKD1 (11759106_at) / Fold change /veh NKD1 (11759106_at) / RFU SRD5A1 (11742802_a_at) / Fold change /veh SRD5A1 (11742802_a_at) / RFU TPSAB1 /// TPSB2 (11721975_s_at) / Fold change /veh TPSAB1 /// TPSB2 (11721975_s_at) / RFU GSTM3 (11746129_a_at) / Fold change /veh GSTM3 (11746129_a_at) / RFU IL23R (11737362_x_at) / Fold change /veh IL23R (11737362_x_at) / RFU TMEM51 (11727254_a_at) / Fold change /veh TMEM51 (11727254_a_at) / RFU PIWIL2 (11732686_x_at) / Fold change /veh PIWIL2 (11732686_x_at) / RFU ORM1 (11744905_x_at) / Fold change /veh ORM1 (11744905_x_at) / RFU CCDC152 (11743942_at) / Fold change /veh CCDC152 (11743942_at) / RFU ECM1 (11717891_a_at) / Fold change /veh ECM1 (11717891_a_at) / RFU IL23R (11748794_a_at) / Fold change /veh IL23R (11748794_a_at) / RFU TNFAIP8L3 (11732012_x_at) / Fold change /veh TNFAIP8L3 (11732012_x_at) / RFU MBOAT4 (11741988_at) / Fold change /veh MBOAT4 (11741988_at) / RFU 11764193_at / Fold change /veh 11764193_at / RFU TMEM53 (11763286_at) / Fold change /veh TMEM53 (11763286_at) / RFU MAGEB2 (11727129_at) / Fold change /veh MAGEB2 (11727129_at) / RFU TMEM200A (11744735_a_at) / Fold change /veh TMEM200A (11744735_a_at) / RFU CCDC152 (11751479_a_at) / Fold change /veh CCDC152 (11751479_a_at) / RFU FAM211A (11726209_a_at) / Fold change /veh FAM211A (11726209_a_at) / RFU RGS16 (11746705_a_at) / Fold change /veh RGS16 (11746705_a_at) / RFU VCAN (11755009_s_at) / Fold change /veh VCAN (11755009_s_at) / RFU RHOB (11743442_s_at) / Fold change /veh RHOB (11743442_s_at) / RFU RGS16 (11720943_a_at) / Fold change /veh RGS16 (11720943_a_at) / RFU RGS16 (11720944_at) / Fold change /veh RGS16 (11720944_at) / RFU, VPS4B / Fold change vs veh, VPS4B / RFU, CREB1 / Fold change vs veh, CREB1 / RFU, DNAJC13 / Fold change vs veh, DNAJC13 / RFU, GNAQ / Fold change vs veh, GNAQ / RFU, CDK5R1 / Fold change vs veh, CDK5R1 / RFU, ZRANB3 / Fold change vs veh, ZRANB3 / RFU, CUL4A / Fold change vs veh, CUL4A / RFU, CCNY / Fold change vs veh, CCNY / RFU, UFL1 / Fold change vs veh, UFL1 / RFU, COG3 / Fold change vs veh, COG3 / RFU, DIAPH2 / Fold change vs veh, DIAPH2 / RFU, SKA2 / Fold change vs veh, SKA2 / RFU, AFF3 / Fold change vs veh, AFF3 / RFU, LMF1 / Fold change vs veh, LMF1 / RFU, IPO11 / Fold change vs veh, IPO11 / RFU, DFFB / Fold change vs veh, DFFB / RFU, FOXP1 / Fold change vs veh, FOXP1 / RFU, CARD8 / Fold change vs veh, CARD8 / RFU, STRN3 / Fold change vs veh, STRN3 / RFU, ADK / Fold change vs veh, ADK / RFU, RASSF2 / Fold change vs veh, RASSF2 / RFU, WIPF1 / Fold change vs veh, WIPF1 / RFU, LARP1B / Fold change vs veh, LARP1B / RFU, RASA1 / Fold change vs veh, RASA1 / RFU, RB1 / Fold change vs veh, RB1 / RFU, PPFIA1 / Fold change vs veh, PPFIA1 / RFU, MAT2A / Fold change vs veh, MAT2A / RFU, CCT5 / Fold change vs veh, CCT5 / RFU, WDR92 / Fold change vs veh, WDR92 / RFU, CUX1 / Fold change vs veh, CUX1 / RFU, TTC7A / Fold change vs veh, TTC7A / RFU, TMEM135 / Fold change vs veh, TMEM135 / RFU, DEPTOR / Fold change vs veh, DEPTOR / RFU, CPM / Fold change vs veh, CPM / RFU, DNAJB6 / Fold change vs veh, DNAJB6 / RFU, CACNA2D3 / Fold change vs veh, CACNA2D3 / RFU, DTX4 / Fold change vs veh, DTX4 / RFU, TFCP2 / Fold change vs veh, TFCP2 / RFU, GMCL1 /// GMCL1P1 / Fold change vs veh, GMCL1 /// GMCL1P1 / RFU, AEBP2 / Fold change vs veh, AEBP2 / RFU, SNHG1 /// SNORD22 /// SNORD25 /// SNORD26 /// SNORD27 /// SNORD28 /// SNORD29 /// SNORD31 / Fold change vs veh, SNHG1 /// SNORD22 /// SNORD25 /// SNORD26 /// SNORD27 /// SNORD28 /// SNORD29 /// SNORD31 / Fold change (Aza/veh), C12orf56 (ProbeSet 11735607_a_at) / Fold change (ACY-1035/veh), C12orf56 (ProbeSet 11735607_a_at) / Fold change (Aza/veh), FGFR1OP (ProbeSet 11751329_s_at) / Fold change (ACY-1035/veh), FGFR1OP (ProbeSet 11751329_s_at) / Fold change (Aza/veh), VPS36 (ProbeSet 11739960_a_at) / Fold change (ACY-1035/veh), VPS36 (ProbeSet 11739960_a_at) / RFU SYPL1 (11715823_x_at) / Fold change /veh SYPL1 (11715823_x_at) / RFU IGFBP7 (11715501_s_at) / Fold change /veh IGFBP7 (11715501_s_at) / RFU REEP3 (11722064_at) / Fold change /veh REEP3 (11722064_at) / RFU IGLL1 (11728026_x_at) / Fold change /veh IGLL1 (11728026_x_at): dose or concentration left out as unconfirmed
Conditions: MV-4-11 cells, 48 hours

SMILES: Nc1ncn([C@@H]2O[C@H](CO)[C@@H](O)[C@H]2O)c(=O)n1 [azacitidine]
- RFU C5orf56 (11738088_a_at): 66.32 RFU
